# In paper PMC8466373, “Plant-Derived and Dietary Hydroxybenzoic Acids—A Comprehensive Study of Structural, Anti-/Pro-Oxidant, Lipophilic, Antimicrobial, and Cytotoxic Activity in MDA-MB-231 and MCF-7 Cell Lines” (Nutrients, 2021):
# Like-named read-outs stand apart in the source and are kept apart here.
# How the values were obtained:
# [1] = Lipophilicity via RP-HPLC; type: physicochemical
# Method: The analyses were carried out on the following chromatographic columns: RP-18e Purospher STAR (C18), 150 mm × 4.0 mm, 5 µm, (Merck, Darmstadt, Germany); RP-8e Purospher STAR (C8), 150 mm × 4.6 mm, 5 µm, (Merck, Darmstadt, Germany); Zorbax Eclipse XDB-CN (CN), 150 mm × 4.6 mm, 5 µm, (Agilent Technologies, Santa Clara, CA, USA); Nucleosil Phenyl (PHE), 250 mm × 4.6 mm, 7 µm, (Supelco, Bellefonte, PA, USA); and Regis Rexchrom IAM.PC.DD.2 (IAM), 100 mm × 4.6 mm, 10 µm, (Regis Technologies Inc., Morton Grave, IL, USA). The experimental conditions and the calculations were as described in [46].
# [2] = system: Salmonella enteritidis (NCTC 4776); assay: MIC by serial dilution in agar medium; type: cell-based; settings: Salmonella enterica
# Method: (§1) The following bacterial strains were used in this study: Escherichia coli (PCM 2857), Pseudomonas aeruginosa (PCM 2720), Bacillus subtilis (PCM 2850), Staphylococcus aureus (PCM 2267), Salmonella enteritidis (NCTC 4776), and Candida albicans (PCM 2566-FY). The microbial strains were bought from the Polish Collection of Microorganisms (Wroclaw, Poland) or the American Type Culture Collection.
# (§2) The MIC (minimal inhibitory concentration) was determined by serial dilution of the tested compound in an agar medium, to which the appropriate inoculum of microorganisms was then added and incubated. Escherichia coli, Pseudomonas aeruginosa, Staphylococcus aureus, Bacillus subtilis, Salmonella enteritidis, and Candida albicans were grown overnight and then resuspended in physiological saline to an optical density at 600 nm (OD = 600) of 0.60, corresponding to 5.0 × 10^8 CFU/mL. Bacteria (0.1 mL of the reconstituted suspension) were seeded onto sterile Mueller–Hinton agar plates, to which previously suitable amounts of the tested compounds were added to reach the desired concentration. Tested chemicals were dissolved in DMSO solution. Negative controls were agar plates, to which DMSO was added, while positive controls were plates with gentamycin (in the case of bacteria) or flucanozole (in the case of fungi). The plates were incubated at 37 °C for 24 h. The lowest concentration without visible bacterial growth was determined as the MIC.
# MDA-MB-231 cells [3] = assay: Cytotoxicity, neutral red (NR) assay; type: cell-based, human; settings: for Cytotoxicity (mM) in Cell Line MDA-MB-231, IC50: 48 h treatment, neutral red assay
# Method: (§3) Briefly, MCF-7 cells were cultured in EMEM (Biological Industries, Israel) medium supplemented with 10% fetal calf serum (Gibco). MDA-MB-231 cells were cultured in Leibovitz‘s L15 (Biological Industries, Beit HaEmek, Israel) medium supplemented with 10% fetal calf serum (Gibco). The MCF-7 cells were incubated in a 5% CO2 atmosphere at 37 °C, whereas the MDA-231 cells were incubated in a 100% air atmosphere at 37 °C.
# (§4) Cytotoxicity evaluation was conducted to assess the impact of hydroxybenzoic acids on the proliferation of MCF-7 and MDA-MB-231 cells, which was measured via neutral red (NR) assay. In brief, cells were seeded in 96-well microplates (TPP, Switzerland) at a density of 2 × 10^4 cells/well in 100 μL of culture medium. At least three independent experiments in six replicate wells were conducted per concentration. Twenty-four hours after cell seeding, cells were treated with increasing concentrations of hydroxybenzoic acids (0.02–5 mM) for forty-eight hours. After treatment, cells were incubated for 3 h at 37 °C with 100 µL of neutral red solution (stock solution of NR) (Sigma-Aldrich), and then 5 mg/mL of PBS was diluted 1:100 in cell culture medium, incubated for 12 h at 37 °C, and centrifuged to remove any undissolved NR powder. […] After 15 min of gentle shaking, optical density was read at 540 nm with an Infinite M200 plate reader spectrophotometer (Tecan, Austria).
# MCF-7 cells = assay: Cytotoxicity, neutral red (NR) assay; type: cell-based, human; settings: for Cytotoxicity (mM) in Cell Line MCF-7, IC50: 48 h treatment, neutral red assay
# Method: as §3, §4
# [4] = ref 102; cited from earlier work
# [5] = system: E. coli, P. aeruginosa, S. aureus, B. subtilis, S. enteritidis, and C. albicans; assay: MIC, stated for all tested strains together; type: cell-based; settings: all of the tested strains
# Method: as §1, with “Collection. Bacteria (0.1 mL of the reconstituted suspension) were seeded onto sterile Mueller–Hinton agar plates (Biomaxima), to which previously suitable amounts of the tested compounds were added to give the desired concentration.” for “Collection.”
# as §2
# [6] = CABTS = 7 mM, cited from earlier work; for inhibition: C = 10 μM, t = 7 min, read-out: ABTS radical scavenging activity (%); for IC50: t = 6 min, read-out: ABTS, IC50
# [7] = cited from earlier work
# [8] = system: HepG2 hepatocellular carcinoma cells; settings: 100 µM, incubation time: 4 days; cited from earlier work
# [9] = cited from earlier work; remark: listed apart in the source
# [10] = cited from earlier work; for inhibition: read-out: DPPH radical scavenging activity (%)
# MDA-MB-231 cells [11] = system: MDA-MB-231 cells; design: method as in PMID 31746356; settings: incubated for 48 h; cited from earlier work
# A. fumigatus = settings: concentration of 30 mg/mL; cited from earlier work
# A. flavus = settings: concentration of 30 mg/mL; cited from earlier work
# [12] = system: E. coli, B. aureus, and L. monocytogenes; design: method as in doi:10.17221/132/2010-CJFS; settings: ref 90; cited from earlier work
# [13] = C = 0,001 mg/mL, λ = 593 nm, t = 30 min
# [14] = C = 10 μM, CDPPH = 100 μM, t = 30 min
# [15] = C = 15 μM, CDPPH = 60 μM, t = 30 min
# [16] = CDPPH = 60 μM, t = 30 min, read-out: DPPH, IC50
# [17] = CDPPH = 1 mM, t = 20 min, read-out: DPPH, IC50
# [18] = Salmonella enteritidis, read-out: MIC
# [19] = CDPPH = 90 μM, t = 30 min, read-out: DPPH, IC50
Compound,"MIC [2, 18]",log kw ([1]; C8 column),ϕ0 ([1]; C8 column),log kw ([1]; C18 column),ϕ0 ([1]; C18 column),log kw ([1]; CN column),ϕ0 ([1]; CN column),log kw ([1]; IAM column),ϕ0 ([1]; IAM column),log kw ([1]; PHE column),ϕ0 ([1]; PHE column),"Cytotoxicity (mM) in Cell Line MDA-MB-231, IC50 (MDA-MB-231 cells [3])","Cytotoxicity (mM) in Cell Line MCF-7, IC50 (MCF-7 cells)",LogPexp. [4],MIC [5],IC50 ([6]; ref 73),pKaexp. ([7]; ref 104),pKaexp. ([7]; ref 105),"FRAP [9, 13]","IC50 [10, 17]",other results
"O=C(O)c1ccc(O)c(O)c1 [3,4-DHB, 3,4-dihydroxybenzoic acid]",–,1.00,0.83,2.32,0.45,1.58,1.08,0.44,1.13,1.07,0.50,nontoxic,nontoxic,0.86 [102],2000 µg/mL,20.7 µM,4.48,4.16,"≈ 0.65 (C = 0,001 mg/mL), λ = 593 nm, t = 30 min) [73] μM Fe^2+",0.0574 µM,"MIC [2]: 2000 µg/mL; inhibition [6]: ~38%; IC50 ([6]; ref 68): 10.1 µM; pKaexp. ([7]; at 25 °C): 4.26; HepG2 cells' viability [8]: 40%; inhibition [10, 14]: ~70%; inhibition [10, 15]: ~88.5%; IC50 ([10]; CDPPH = 50 μM, t = 30 min, read-out: DPPH, IC50): 3.83 µM; IC50 [10, 16]: 15.8 µM"
"O=C(O)c1cccc(O)c1O [2,3-DHB, 2,3-Dihydroxybenzoic acid]",5000 µg/mL,1.70,0.87,2.47,0.60,1.59,1.16,2.17,1.08,1.25,0.93,–,–,1.20 [102],5000 µg/mL,10.7 µM,2.98,2.56,–,–,concentration that inhibited colony formation (MDA-MB-231 cells [11]): ~ 500 µM; zone of inhibition (A. fumigatus): 30 mm; zone of inhibition (A. flavus): 24 mm; pKaexp. ([7]; at 25 °C): 2.91
"O=C(O)c1cc(O)cc(O)c1 [3,5-DHB, 3,5-dihydroxybenzoic acid]",2000 µg/mL,0.90,0.83,2.56,0.45,1.78,1.07,0.51,1.16,1.03,0.55,nontoxic,nontoxic,0.86 [102],–,41.9 µM,4.04,3.61,"≈ 0.03 (C = 0,001 mg/mL), λ = 593 nm, t = 30 min) [73] μM Fe^2+",–,"pKaexp. ([7]; ref 108): 4.04; IC50 [10, 19]: 385 µM"
"O=C(O)c1cc(O)c(O)c(O)c1 [3,4,5-THB, 3,4,5-trihydroxybenzoic acid]",–,0.50,0.91,1.91,0.37,1.24,1.06,0.15,1.44,0.83,0.33,–,–,0.70 [102],–,4.33 µM,4.41,3.94,"≈ 1.03 (C = 0,001 mg/mL), λ = 593 nm, t = 30 min) [73] μM Fe^2+",0.0237 µM,"inhibition of growth of MDA-MB-231 cells (MDA-MB-231 cells [3]; concentration of 5 mM): almost completely; inhibition of growth of MCF-7 cells (MCF-7 cells; concentration of 5 mM): almost completely; inhibition [6]: ~80%; pKaexp. ([7]; ref 110): 4.40; inhibition [10, 14]: ~70%; inhibition [10, 15]: 88.5%; inhibition ([10]; C ≈ 0.7 mM, CDPPH = 200 μM, t = 30 min): 40%; IC50 ([10]; after 30 min of incubation with a free radical, read-out: DPPH IC50): 4.2 µM"

# More lines, main results first:
"MIC [2, 18]",Compound,log kw ([1]; C8 column),ϕ0 ([1]; C8 column),log kw ([1]; C18 column),ϕ0 ([1]; C18 column),log kw ([1]; CN column),ϕ0 ([1]; CN column),log kw ([1]; IAM column),ϕ0 ([1]; IAM column),log kw ([1]; PHE column),ϕ0 ([1]; PHE column),"Cytotoxicity (mM) in Cell Line MDA-MB-231, IC50 (MDA-MB-231 cells [3])","Cytotoxicity (mM) in Cell Line MCF-7, IC50 (MCF-7 cells)",LogPexp. [4],MIC [5],IC50 ([6]; ref 73),pKaexp. ([7]; ref 104),pKaexp. ([7]; ref 105),"FRAP [9, 13]","IC50 [10, 17]",other results
3000 µg/mL,"O=C(O)c1cc(O)ccc1O [2,5-DHB, 2,5-dihydroxybenzoic acid]",–,–,–,–,–,–,–,–,–,–,–,–,–,–,15.6 µM,–,–,"≈ 0.98 (C = 0,001 mg/mL), λ = 593 nm, t = 30 min) [73] μM Fe^2+",0.0292 µM,"concentration that inhibited colony formation (MDA-MB-231 cells [11]): 100 µM; IC50 ([6]; ref 68): ~6.5 µM; MIC [12]: 2500 µM; FRAP ([9]; C = 5 μM, λ = 594 nm, t = n.d.): 75.39 (C = 5 μM, λ = 594 nm, t = n.d.) [62] μM Fe^2+; FRAP ([9]; C = 50 μM, λ = 594 nm, t = n.d.): 236.86 (C = 50 μM, λ = 594 nm, t = n.d.) [62] μM Fe^2+; IC50 [10, 16]: 6.3 µM; IC50 ([10]; CDPPH = 60 μM, t = 60 min, read-out: DPPH, IC50): 4.95 µM; IC50 [10, 19]: 37 µM"
3000 µg/mL,"O=C(O)c1c(O)cccc1O [2,6-DHB, 2,6-dihydroxybenzoic acid]",1.17,1.05,2.99,0.68,1.49,1.08,1.31,1.14,0.87,1.05,–,–,2.20 [102],–,–,1.30,1.51,–,–,"IC50 ([10]; CDPPH = 500 μM, t = 30 min, read-out: DPPH, IC50): 232 µM"
